Data reported in the NIST ThermoML archive (doi:10.1021/je400968v).

Experiment: mn = molality of the nth substance listed, in mol/kg
Settings: 101 kPa, Liquid; for viscosity: Capillary tube (Ostwald / Ubbelohde) method; for mass density: Vibrating tube method

Cc1ccc(N)cc1N [4-methyl-1,3-benzendiamine] + CCO
Settings | mass density, 293.15 K [kg/m3] | mass density, 303.15 K [kg/m3] | mass density, 313.15 K [kg/m3] | mass density, 323.15 K [kg/m3] | mass density, 333.15 K [kg/m3] | viscosity, 293.15 K [mPa·s] | viscosity, 303.15 K [mPa·s] | viscosity, 313.15 K [mPa·s] | viscosity, 323.15 K [mPa·s] | viscosity, 333.15 K [mPa·s]
m1 = 0.0503 | 791.4 | 782.79 | 774 | 765.08 | 755.96 | 1.196 | 0.982 | 0.815 | 0.68 | 0.571
m1 = 0.0999 | 793.18 | 784.54 | 775.74 | 766.82 | 757.7 | 1.208 | 0.995 | 0.821 | 0.685 | 0.576
m1 = 0.1497 | 794.92 | 786.27 | 777.46 | 768.52 | 759.41 | 1.224 | 1.004 | 0.829 | 0.691 | 0.579
m1 = 0.1994 | 796.64 | 787.95 | 779.14 | 770.21 | 761.1 | 1.236 | 1.015 | 0.836 | 0.696 | 0.583
m1 = 0.2494 | 798.32 | 789.63 | 780.81 | 771.88 | 762.76 | 1.252 | 1.027 | 0.845 | 0.703 | 0.588
m1 = 0.2997 | 799.96 | 791.27 | 782.46 | 773.52 | 764.42 | 1.265 | 1.037 | 0.853 | 0.708 | 0.592
m1 = 0.3496 | 801.58 | 792.88 | 784.07 | 775.13 | 766.03 | 1.28 | 1.046 | 0.861 | 0.714 | 0.597
m1 = 0.3994 | 803.15 | 794.44 | 785.66 | 776.73 | 767.62 | 1.293 | 1.059 | 0.868 | 0.72 | 0.601
m1 = 0.4496 | 804.71 | 796.01 | 787.24 | 778.31 | 769.19 | 1.31 | 1.068 | 0.877 | 0.727 | 0.607
m1 = 0.4995 | 806.25 | 797.53 | 788.77 | 779.84 | 770.7 | 1.323 | 1.079 | 0.883 | 0.731 | 0.61
m1 = 0.5492 | 807.75 | 799.06 | 790.28 | 781.37 | 772.2 | 1.34 | 1.09 | 0.893 | 0.739 | 0.616
m1 = 0.5989 | 809.18 | 800.53 | 791.76 | 782.81 | 773.66 | 1.353 | 1.101 | 0.899 | 0.743 | 0.619

Cc1c(N)cccc1N [2,6-diaminotoluene] + CCCO
Settings | mass density, 293.15 K [kg/m3] | mass density, 303.15 K [kg/m3] | mass density, 313.15 K [kg/m3] | mass density, 323.15 K [kg/m3] | mass density, 333.15 K [kg/m3] | viscosity, 293.15 K [mPa·s] | viscosity, 303.15 K [mPa·s] | viscosity, 313.15 K [mPa·s] | viscosity, 323.15 K [mPa·s] | viscosity, 333.15 K [mPa·s]
m1 = 0.0501 | 805.5 | 797.18 | 789 | 780.63 | 772.03 | 2.19 | 1.709 | 1.348 | 1.074 | 0.864
m1 = 0.0997 | 807.1 | 798.78 | 790.58 | 782.21 | 773.6 | 2.209 | 1.72 | 1.355 | 1.079 | 0.869
m1 = 0.1498 | 808.7 | 800.36 | 792.16 | 783.77 | 775.16 | 2.226 | 1.734 | 1.365 | 1.086 | 0.874
m1 = 0.1995 | 810.26 | 801.92 | 793.7 | 785.32 | 776.68 | 2.245 | 1.744 | 1.372 | 1.092 | 0.878
m1 = 0.2499 | 811.81 | 803.46 | 795.23 | 786.83 | 778.21 | 2.268 | 1.759 | 1.383 | 1.099 | 0.883
m1 = 0.2994 | 813.34 | 804.95 | 796.73 | 788.33 | 779.69 | 2.282 | 1.77 | 1.391 | 1.106 | 0.888
m1 = 0.3496 | 814.83 | 806.45 | 798.21 | 789.79 | 781.15 | 2.305 | 1.789 | 1.401 | 1.112 | 0.893
